Assay results reported in paper PMC8387043, “Host Poly(A) Polymerases PAPD5 and PAPD7 Provide Two Layers of Protection That Ensure the Integrity and Stability of Hepatitis B Virus RNA” (Journal of Virology, 2021).
Like-named read-outs stand apart in the source and are kept apart here.

Experiments:
HBV [1] = experiment: Antiviral assay in HepG2.2.15 cells (HBsAg/HBeAg CLIA, secreted HBV DNA qPCR); format: cell-based, hepatitis B virus
HBV [2] = experiment: HBsAg inhibition in PLC/PRF/5 cells; format: cell-based; conditions: Hepatitis B virus
Experimental: AB-452 and RG7834 both belong to the dihydroquinolizinones chemical class. The antiviral activities of AB-452 and its diastereomer ARB-169451 were evaluated using multiple in vitro HBV replication models, including HepG2.2.15 cells (which constitutively express HBV through the integrated viral genome), PLC/PRF/5 cells (a patient-derived hepatocellular carcinoma cell line only expressing HBsAg), and HBV-infected HepG2-NTCP cells or primary human hepatocytes (PHHs) in which viral replication was dependent on cccDNA transcription (Table 1).
HepG2.2.15, HepAD38, and PLC/PRF/5 cells were cultured in Dulbecco’s modified Eagle medium (DMEM)/F12 medium (Corning, NY, USA), supplemented with 10% fetal bovine serum (Gemini, CA, USA), 100 U/ml penicillin, and 100 μg/ml streptomycin. Huh-7 cells (Creative Bioarray, NY, USA) were cultured in RPMI 1640 medium (Basel, Switzerland) containing 10% fetal bovine serum, 100 U/ml penicillin, and 100 μg/ml streptomycin. HepG2-hNTCP-C4 cells were cultured in DMEM medium (Gibco, MA, USA) containing 10% fetal bovine serum and 10 mM HEPES (Gibco).

recombinant human PAPD5 = biological target: T1, recombinant human PAPD5 (Homo sapiens, UniProt Q8NDF8); experiment: PAPD5 ATP depletion assay; format: biochemical; conditions: truncated recombinant human PAPD5, ATP depletion
T1 construct: PAPD5 (amino acids 186 to 518; XM_011523275); 10xHis (N); Flag (N); TEV cleavage site (N); host or cells: E. coli BL21(DE3), vector pET-24a(+)
Experimental: (§1) Molecular cloning, expression, and purification of the recombinant human PAPD5 and PAPD7 proteins were performed at Xtal BioStructures (MA, USA). PAPD5 (amino acids 186 to 518; GenBank accession no. XM_011523275) and PAPD7 (amino acids 226 to 558; GenBank accession no. NM_006999.6) genes comprising of nucleotidyltransferase and PAP-associated domains were codon optimized, synthesized, and inserted in the expression vector pET-24a(+) for E. coli expression with 10×His-Flag-tobacco etch virus (TEV) tags at the N terminus. The pET-24a(+) constructs were transformed into E. coli-competent cells BL21(DE3). […] Expression of protein was induced for 16 h with 0.2 mM IPTG (isopropyl-β-D-thiogalactopyranoside) at 18°C. […] Roche). Cell suspension was sonicated 8 × 20 s at 27 to 30 W (power level, 3.5 to 4.0) with 40-s breaks between each pulse. Lysate was cleared by centrifugation in a 50-ml conical tube at 20,000 × g for 30 min (Fiberlite F13-14 × 50cy rotor in a Sorvall RC6 centrifuge). Supernatant was incubated with Ni-charged MagBeads (GenScript; catalog no. […] Bound proteins were washed with 50 ml binding buffer and eluted in elution buffer containing a gradient of imidazole ranging from 5 to 500 mM. Peak fractions were pooled and stored in 50% glycerol at -80°C. Reactions were carried out in duplicate in 96-well low-profile, skirted, white plates (catalog no. AB0800WL; […] The reaction mixtures were incubated at room temperature for 3 h, and ATP depletion was monitored by using Kinase-Glo luminescent kinase kit following the manufacturer's instructions (catalog no. V6712; Promega, WI, USA).

HBV PRE = HBV PRE cis-element reporter plasmids (HBsAg or Gluc) transfected in Huh-7 cells; conditions: Hepatitis B virus
recombinant human PAPD7 = biological target: T2, recombinant human PAPD7 (Homo sapiens, UniProt Q5XG87); experiment: PAPD7 ATP depletion assay; format: biochemical
T2 construct: PAPD7 (amino acids 226 to 558; NM_006999.6); 10xHis (N); Flag (N); TEV cleavage site (N); host or cells: E. coli BL21(DE3), vector pET-24a(+)
Experimental: as §1

HBV [3] = experiment: HBV replication intermediates and viral proteins in HepG2.2.15 cells (Northern, Western, particle gel, Southern); format: cell-based, hepatitis B virus; conditions: HepG2.2.15, 6 days; ETV, GLS-4, cmpdA 1 μM; AB-452 70 nM
Experimental: Total cellular RNA was extracted from HepG2.2.15 or HepAD38 cells treated with or without antiviral compounds using TRIzol reagent according to the manufacturer's directions (Thermo Fisher Scientific, Waltham, MA). Northern blotting was performed as described previously ([1]). Briefly, total RNA was separated in a 1.5% agarose gel and transferred onto an Amersham Hybond-XL membrane (product no. GERPN303S; GE Healthcare, IL, USA). Membranes were probed with an [α-^32P]UTP (PerkinElmer, CT, USA)-labeled minus strand-specific full-length HBV riboprobe (3.2 kb) transcribed from plasmid pSP65_HBV(+) DNA. Membranes were exposed to a phosphoimager screen, and the hybridization signals were quantified using Image Studio software (Li-Cor Biosciences, NE, USA).
Total intracellular viral core-associated DNA was extracted as described previously ([1]) and analyzed by Southern blotting hybridization with an [α-^32P]UTP-labeled full-length HBV riboprobe (3.2 kb) that specifically hybridized to minus strand of viral DNA. Membranes were exposed to a phosphoimager screen, and the hybridization signals were quantified using Image Studio software.
HepG2.2.15 or HepAD38 cells cultured in a 12-well plate were lysed with 200 μl Laemmli sample buffer (Bio-Rad, PA, USA) supplemented with 2.5% 2-mercaptoethanol (Sigma-Aldrich, MO, USA). […]

PAPD5 = tested on: PAPD5; design: method as in PMID 31801065; conditions: read-out: PAPD5 IC50 previously reported; cited from earlier work
HBsAg = HBsAg inhibition in adenovirus-HBsAg-transduced HepG2-NTCP WT and KO clones; format: cell-based, hepatitis B virus; conditions: for EC50: HBsAg, read-out: Adeno infection EC50

T1 sequence (Q8NDF8 106-438 limits assumed): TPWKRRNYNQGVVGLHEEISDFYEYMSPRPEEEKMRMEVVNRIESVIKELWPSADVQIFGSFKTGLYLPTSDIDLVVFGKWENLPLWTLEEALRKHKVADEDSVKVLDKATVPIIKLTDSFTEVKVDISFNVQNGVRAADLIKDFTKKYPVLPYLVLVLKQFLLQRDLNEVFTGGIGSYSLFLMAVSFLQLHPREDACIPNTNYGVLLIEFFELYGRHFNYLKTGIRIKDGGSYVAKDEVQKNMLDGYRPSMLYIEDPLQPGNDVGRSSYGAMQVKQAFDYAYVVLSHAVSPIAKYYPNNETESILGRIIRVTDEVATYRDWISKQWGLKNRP
T2 sequence (Q5XG87 226-558): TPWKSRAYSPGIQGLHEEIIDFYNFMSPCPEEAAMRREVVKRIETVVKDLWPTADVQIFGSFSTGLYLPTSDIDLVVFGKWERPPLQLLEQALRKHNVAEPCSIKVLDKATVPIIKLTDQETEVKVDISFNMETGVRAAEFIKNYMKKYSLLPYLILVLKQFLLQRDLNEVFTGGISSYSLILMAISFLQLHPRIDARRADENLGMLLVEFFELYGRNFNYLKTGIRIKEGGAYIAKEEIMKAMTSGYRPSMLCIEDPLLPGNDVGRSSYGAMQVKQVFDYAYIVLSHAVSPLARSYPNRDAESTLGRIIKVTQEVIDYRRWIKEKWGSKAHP

For `COCCCOc1cc2c(nc1OC)-c1cc(=O)c(C(=O)O)cn1[C@@H](C(C)C)C2` [ARB-169451], the “fold weaker toward HBsAg inhibition than AB-452” value (HBV [1]) was “more than 1,000 fold”, the EC50 (HBV [1]; Hepatitis B virus, HepG2.2.15 cells, read-out: HBsAg EC50) was 2230 nM and the EC50 (HBV [2]) was over 100 nM. For the same compound, the IC50 (recombinant human PAPD5) was 27000 nM, the EC50 (HBV PRE; 120 h, read-out: EC50, Gluc_dHBx (Gluc activity)) was over 100 nM and the EC50 (HBV PRE; 120 h, read-out: EC50, H133_Gluc (Gluc activity)) was over 100 nM. For the same compound, the EC50 (HBV PRE; Huh-7, 120 h, read-out: EC50, Gluc_rcSLα (Gluc activity)) was over 100 nM, the EC50 (HBV PRE; Huh-7, 120 h, read-out: EC50, H133 (HBsAg)) was over 100 nM and the EC50 (HBV PRE; Huh-7, 120 h, read-out: EC50, H133_dLa (HBsAg)) was over 100 nM. It also gave an EC50 (HBV PRE; Huh-7, 120 h, read-out: EC50, H133_dSLα (HBsAg)) of over 100 nM and an IC50 (recombinant human PAPD7) of over 50000 nM.
For `C=C1[C@H](CO)[C@@H](O)C[C@@H]1n1cnc2c(=O)[nH]c(N)nc21` [ETV, entecavir, reference compound], the “Effect on HBV replication intermediates and viral proteins” value (HBV [3]) was “strongly inhibited HBV DNA replication but did not reduce the production of intracellular HBV RNA, core protein levels, or capsid assembly”.
For `COCCCOc1cc2c(cc1OC)-c1cc(=O)c(C(=O)O)cn1[C@H](C(C)C)C2` [RG7834, reference compound], the IC50 (recombinant human PAPD5) is given as 167 nM, the IC50 (PAPD5) is given as 1.3 nM and the “Adeno infection FC vs WT” value (HBsAg; P5_KO (T3-4)) is given as 10.7. For the same compound, the EC50 (HBsAg; P5_KO (T3-4)) was 126 ± 74.7 nM, the “Adeno infection FC vs WT” value (HBsAg; P5_KO (T3-15)) was 7.3 and the EC50 (HBsAg; P5_KO (T3-15)) was 85.7 ± 59.8 nM. The “Adeno infection FC vs WT” value (HBsAg; P7_KO (T2-8)) was 2.0, the EC50 (HBsAg; P7_KO (T2-8)) was 23.7 ± 15.2 nM and the “Adeno infection FC vs WT” value (HBsAg; P7_KO (T2-22)) was 0.9. For the same compound, the EC50 (HBsAg; P7_KO (T2-22)) was 10.8 ± 2.1 nM, the “Adeno infection FC vs WT” value (HBsAg; WT (parent)) was 1 and the EC50 (HBsAg; WT (parent) HepG2-NTCP) was 11.8 ± 9.6 nM. It also gave an IC50 (recombinant human PAPD7) of 1090 nM.
